Here are results for three molecules from article PMC2804269 (Bioconjugate chemistry, 2009).

A word on the tissue uptake: it is the share of the injected amount in each gram of the tissue. As usually defined, the Kd is the equilibrium constant for the complex coming apart.

Series [1] deals with U87MG tumor bearing mice. Kind of series: Biodistribution in nude mice bearing U87MG xenografts. The format is in vivo, mouse. The settings on record: 330 μg c(RGDyK), 0.5 h p.i., P < 0.05.
Assay in series [2]: as above
The settings on record: nude, mouse, iv, 740 KBq (20 uCi), total radioactivity, 0.5 h p.i., n = 3. The class given is in vivo, mouse.

In series [3] the test system is U87MG tumor bearing mice. Kind of series: Static microPET imaging quantification. The format is in vivo, mouse. The conditions noted are these: quantification of microPET images.
Series [4] deals with U87MG tumor bearing mice. Kind of series: Dynamic microPET scan of U87MG tumor-bearing mouse. The settings on record: 35 min p.i., ROI analysis of the heart. The class given is in vivo.
Series [5] addresses integrin αvβ3 (Homo sapiens) (UniProt P06756). The conditions noted are these: cited from earlier work.
The target of another series is αvβ3 integrin. The settings on record: binding to αvβ3 integrin; cited from earlier work.

Bridge positions count the residues as written; N and C are the ends. Peptide text beside a SMILES is read from it. * marks the point of attachment. Benzoyl(4-F) = O=C(c1ccc(F)cc1)*

UniProt P06756, sequence (P06756 31-1048, chain 1 of 2): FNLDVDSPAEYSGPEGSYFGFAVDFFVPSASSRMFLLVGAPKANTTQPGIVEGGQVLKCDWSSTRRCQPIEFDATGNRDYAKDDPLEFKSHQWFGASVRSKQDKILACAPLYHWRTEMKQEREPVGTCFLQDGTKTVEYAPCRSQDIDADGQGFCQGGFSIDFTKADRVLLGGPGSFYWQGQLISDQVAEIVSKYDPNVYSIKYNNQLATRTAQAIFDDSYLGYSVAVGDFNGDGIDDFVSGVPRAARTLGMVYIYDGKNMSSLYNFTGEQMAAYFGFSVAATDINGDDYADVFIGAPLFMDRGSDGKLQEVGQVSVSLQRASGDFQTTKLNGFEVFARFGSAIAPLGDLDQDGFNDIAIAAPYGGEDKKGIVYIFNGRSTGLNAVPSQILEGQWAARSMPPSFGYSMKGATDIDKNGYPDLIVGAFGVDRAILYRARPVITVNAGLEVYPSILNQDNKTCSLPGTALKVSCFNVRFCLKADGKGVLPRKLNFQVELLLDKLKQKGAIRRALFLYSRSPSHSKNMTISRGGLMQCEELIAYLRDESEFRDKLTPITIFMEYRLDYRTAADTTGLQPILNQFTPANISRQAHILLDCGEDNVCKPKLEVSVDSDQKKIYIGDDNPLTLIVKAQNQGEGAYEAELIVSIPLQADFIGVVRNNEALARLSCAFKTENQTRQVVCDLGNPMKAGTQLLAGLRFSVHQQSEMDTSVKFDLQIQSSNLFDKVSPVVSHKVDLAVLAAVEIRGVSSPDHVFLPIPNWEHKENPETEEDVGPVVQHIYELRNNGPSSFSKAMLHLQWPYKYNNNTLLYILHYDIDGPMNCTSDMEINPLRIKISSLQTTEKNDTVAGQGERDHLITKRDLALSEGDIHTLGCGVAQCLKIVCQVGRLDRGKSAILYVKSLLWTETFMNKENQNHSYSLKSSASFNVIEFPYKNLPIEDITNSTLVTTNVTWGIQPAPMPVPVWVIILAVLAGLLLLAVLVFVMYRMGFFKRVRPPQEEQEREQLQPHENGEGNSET
UniProt P06756, sequence (P05106 27-788, chain 2 of 2, further chain): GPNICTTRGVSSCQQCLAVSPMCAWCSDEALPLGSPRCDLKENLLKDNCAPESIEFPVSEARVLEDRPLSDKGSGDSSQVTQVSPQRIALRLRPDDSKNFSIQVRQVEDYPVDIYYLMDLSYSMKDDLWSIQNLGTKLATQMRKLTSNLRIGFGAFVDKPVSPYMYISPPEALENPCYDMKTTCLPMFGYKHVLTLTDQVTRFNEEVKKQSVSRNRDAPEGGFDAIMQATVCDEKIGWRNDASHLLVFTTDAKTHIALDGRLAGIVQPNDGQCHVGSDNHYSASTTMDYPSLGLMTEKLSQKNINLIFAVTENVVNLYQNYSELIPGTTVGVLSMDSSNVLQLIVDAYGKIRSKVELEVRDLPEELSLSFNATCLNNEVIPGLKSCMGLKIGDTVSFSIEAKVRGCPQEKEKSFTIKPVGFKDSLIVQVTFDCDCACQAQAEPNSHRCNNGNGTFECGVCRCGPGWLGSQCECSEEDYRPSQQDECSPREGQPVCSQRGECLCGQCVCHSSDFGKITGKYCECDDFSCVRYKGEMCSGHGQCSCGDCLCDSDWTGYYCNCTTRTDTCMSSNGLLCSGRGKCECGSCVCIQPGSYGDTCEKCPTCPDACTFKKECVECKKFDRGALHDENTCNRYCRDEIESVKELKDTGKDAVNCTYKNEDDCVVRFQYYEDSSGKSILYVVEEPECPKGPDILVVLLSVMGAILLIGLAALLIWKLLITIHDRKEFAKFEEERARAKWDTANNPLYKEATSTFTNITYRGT

Take `CC(C)C[C@@H]1NC(=O)[C@@H]2CSSC[C@@H](C(=O)NCC(N)=O)NC(=O)[C@H](Cc3ccccc3)NC(=O)CNC(=O)[C@H](CC(N)=O)NC(=O)[C@@H]3CCCN3C(=O)CNC(=O)[C@@H]3CSSC[C@H](NC(=O)[C@H](CO)NC(=O)[C@H]([C@@H](C)O)NC(=O)[C@@H]4CCCN4C(=O)[C@H](C)NC(=O)[C@H](Cc4c[nH]c5ccccc45)NC(=O)[C@H](CC(=O)O)NC(=O)CNC(=O)[C@H](CCCNC(=N)N)NC(=O)CNC(=O)[C@H](CCC(N)=O)NC(=O)[C@@H]4CCCN4C(=O)[C@@H](NC(=O)CNC(=O)c4ccc(F)cc4)CSSC[C@H](NC(=O)CNC(=O)[C@H](C)NC1=O)C(=O)N[C@@H](C(C)C)C(=O)N3)C(=O)N[C@@H](CO)C(=O)N[C@@H](CCC(N)=O)C(=O)N[C@@H](CC(=O)O)C(=O)N[C@@H](CO)C(=O)N[C@@H](CC(=O)O)C(=O)N2` [^18F-FB-2.5D] ({Benzoyl(4-F)}-GCPQGRGDWAPTSCSQDSDCLAGCVCGPNGFCG-NH2; disulfide 2-24, 14-26, 20-32; C-terminus assumed): the “inhibition of tumor uptake by co-injection of c(RGDyK)” value in the series with U87MG tumor bearing mice [1] is 70%. The tissue uptake at 0.5 h in series [2] (blood, blood radioactivity (biodistribution)) worked out at 1.32 ± 0.07 %ID/g; in series [2] (kidney, kidney uptake (biodistribution)), 4.24 ± 0.19 %ID/g; in series [2] (liver, liver uptake (biodistribution)), 1.38 ± 0.55 %ID/g. In addition, the “activity remaining in tumor at 1 h p.i. compared to 0.5 h” value with U87MG tumor bearing mice [3] was 56%. Further, the “radioactivity in blood relative to amount at 3 min p.i.” value in the series with U87MG tumor bearing mice [4] is reported as “approximately 9.2%”.
In the case of Echistatin (from UniProt P17347), the Kd in series [5] was 300 pM.
Turning to echistatin, the Kd at αvβ3 integrin was approximately 300 pM.
